Test system: 521955-158-R2-J5-PDC complex spheroid viability
Assay: Anticancer human tumor 521955-158-R2-J5-PDC patient-derived pancreatic carcinoma cell line growth inhibition [GQUAD]
Conditions: for IC50: curve of first compound; for viability, T/C: stronger effect = lower value
How it was run: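 Tumor cells were grown as complex spheroids with HUVEC endothelial cells and mesenchymal stem cells as stroma. G-quadruplex stabilizers were combined with targeted agents over half-log dilutions from near the clinical Cmax, or from 10 microM.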

[1] = second compound 0.0316 µM, first compound 0.000999 µM
[2] = second compound 0.0316 µM, first compound 0.00316 µM
[3] = second compound 0.0316 µM, first compound 0.00999 µM
[4] = second compound 0.0316 µM, first compound 0.0316 µM
[5] = second compound 0.0316 µM, first compound 0.0999 µM
[6] = second compound 0.0316 µM, first compound 0.316 µM
[7] = second compound 0.1 µM, first compound 0.000999 µM
[8] = second compound 0.1 µM, first compound 0.00316 µM
[9] = second compound 0.1 µM, first compound 0.00999 µM
[10] = second compound 0.1 µM, first compound 0.0316 µM
[11] = second compound 0.1 µM, first compound 0.0999 µM
[12] = second compound 0.1 µM, first compound 0.316 µM
[13] = second compound 0.316 µM, first compound 0.000999 µM
[14] = second compound 0.316 µM, first compound 0.00316 µM
[15] = second compound 0.316 µM, first compound 0.00999 µM
[16] = second compound 0.316 µM, first compound 0.0316 µM
[17] = second compound 0.316 µM, first compound 0.0999 µM
[18] = second compound 0.316 µM, first compound 0.316 µM
[19] = second compound 1 µM, first compound 0.000999 µM
[20] = second compound 1 µM, first compound 0.00316 µM
[21] = second compound 1 µM, first compound 0.00999 µM
[22] = second compound 1 µM, first compound 0.0316 µM
[23] = second compound 1 µM, first compound 0.0999 µM
[24] = second compound 1 µM, first compound 0.316 µM
[25] = second compound 3.16 µM, first compound 0.000999 µM
[26] = second compound 3.16 µM, first compound 0.00316 µM
[27] = second compound 3.16 µM, first compound 0.00999 µM
[28] = second compound 3.16 µM, first compound 0.0316 µM
[29] = second compound 3.16 µM, first compound 0.0999 µM
[30] = second compound 3.16 µM, first compound 0.316 µM
[31] = second compound 10 µM, first compound 0.000999 µM
[32] = second compound 10 µM, first compound 0.00316 µM
[33] = second compound 10 µM, first compound 0.00999 µM
[34] = second compound 10 µM, first compound 0.0316 µM
[35] = second compound 10 µM, first compound 0.0999 µM
[36] = second compound 10 µM, first compound 0.316 µM
[37] = second compound 0.0316 µM, first compound 0.1 µM
[38] = second compound 0.0316 µM, first compound 1 µM
[39] = second compound 0.0316 µM, first compound 3.16 µM
[40] = second compound 0.0316 µM, first compound 10 µM
[41] = second compound 0.1 µM, first compound 0.1 µM
[42] = second compound 0.1 µM, first compound 1 µM
[43] = second compound 0.1 µM, first compound 3.16 µM
[44] = second compound 0.1 µM, first compound 10 µM
[45] = second compound 0.316 µM, first compound 0.1 µM
[46] = second compound 0.316 µM, first compound 1 µM
[47] = second compound 0.316 µM, first compound 3.16 µM
[48] = second compound 0.316 µM, first compound 10 µM
[49] = second compound 1 µM, first compound 0.1 µM
[50] = second compound 1 µM, first compound 1 µM
[51] = second compound 1 µM, first compound 3.16 µM
[52] = second compound 1 µM, first compound 10 µM
[53] = second compound 3.16 µM, first compound 0.1 µM
[54] = second compound 3.16 µM, first compound 1 µM
[55] = second compound 3.16 µM, first compound 3.16 µM
[56] = second compound 3.16 µM, first compound 10 µM
[57] = second compound 10 µM, first compound 0.1 µM
[58] = second compound 10 µM, first compound 1 µM
[59] = second compound 10 µM, first compound 3.16 µM
[60] = second compound 10 µM, first compound 10 µM
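Further: spheroids exposed to agents for one week before reading.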
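Wherever viability, T/C is given: 100% = DMSO vehicle control viability.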

With `Cc1[nH]c2ccccc2c1CCNCc1ccc(/C=C/C(=O)NO)cc1` + CN(C)c1ccc(Nc2c3ccc(NC(=O)CCN4CCCC4)cc3nc3cc(NC(=O)CCN4CCCC4)ccc23)cc1 the IC50 (second compound 0.0316 µM) was 168 nM, the IC50 (second compound 0.1 µM) was 117 nM and the IC50 (second compound 0.316 µM) was 156 nM. The IC50 (second compound 1 µM) was 180 nM, the IC50 (second compound 3.16 µM) was 119 nM and the IC50 (second compound 10 µM) was 67.6 nM. It also gave a viability, T/C [1] of 132%, a viability, T/C [2] of 110% and a viability, T/C [3] of 133%. It also gave a viability, T/C [4] of 109%, a viability, T/C [5] of 72.3% and a viability, T/C [6] of 23.4%. For the same compound, the viability, T/C [7] was 113%, the viability, T/C [8] was 132% and the viability, T/C [9] was 128%. It also gave a viability, T/C [10] of 121%, a viability, T/C [11] of 54.8% and a viability, T/C [12] of 19.7%. For the same compound, the viability, T/C [13] was 105%, the viability, T/C [14] was 125% and the viability, T/C [15] was 123%. For the same compound, the viability, T/C [16] was 90.8%, the viability, T/C [17] was 68.7% and the viability, T/C [18] was 24.4%. It also gave a viability, T/C [19] of 107%, a viability, T/C [20] of 114% and a viability, T/C [21] of 134%. It also gave a viability, T/C [22] of 114%, a viability, T/C [23] of 82.6% and a viability, T/C [24] of 19%. For the same compound, the viability, T/C [25] was 91.7%, the viability, T/C [26] was 116% and the viability, T/C [27] was 119%. The viability, T/C [28] was 97%, the viability, T/C [29] was 56.9% and the viability, T/C [30] was 13.2%. For the same compound, the viability, T/C [31] was 70.7%, the viability, T/C [32] was 103% and the viability, T/C [33] was 79.3%. For the same compound, the viability, T/C [34] was 82.6%, the viability, T/C [35] was 33.3% and the viability, T/C [36] was 3.21%.
In the case of `CCc1c2c(nc3ccc(O)cc13)-c1cc3c(c(=O)n1C2)COC(=O)[C@]3(O)CC` + CN(C)c1ccc(Nc2c3ccc(NC(=O)CCN4CCCC4)cc3nc3cc(NC(=O)CCN4CCCC4)ccc23)cc1, the IC50 (second compound 0.0316 µM) is reported as 3.29 nM, the IC50 (second compound 0.1 µM) is reported as 3.03 nM and the IC50 (second compound 0.316 µM) is reported as 2.54 nM. For the same compound, the IC50 (second compound 1 µM) was 2.41 nM, the IC50 (second compound 3.16 µM) was 2.28 nM and the IC50 (second compound 10 µM) was 1.54 nM. For the same compound, the viability, T/C [1] was 74.6%, the viability, T/C [2] was 49.6% and the viability, T/C [3] was 32.4%. The viability, T/C [4] was 15.1%, the viability, T/C [5] was 11.6% and the viability, T/C [6] was 9.29%. The viability, T/C [7] was 80.2%, the viability, T/C [8] was 46.8% and the viability, T/C [9] was 31.7%. The viability, T/C [10] was 18%, the viability, T/C [11] was 9.85% and the viability, T/C [12] was 7.27%. The viability, T/C [13] was 84.6%, the viability, T/C [14] was 39.3% and the viability, T/C [15] was 25.3%. The viability, T/C [16] was 12.8%, the viability, T/C [17] was 11.6% and the viability, T/C [18] was 4.59%. For the same compound, the viability, T/C [19] was 89.1%, the viability, T/C [20] was 33.5% and the viability, T/C [21] was 25.4%. It also gave a viability, T/C [22] of 15.4%, a viability, T/C [23] of 9.81% and a viability, T/C [24] of 6.13%. The viability, T/C [25] was 75.5%, the viability, T/C [26] was 33.7% and the viability, T/C [27] was 30.4%. For the same compound, the viability, T/C [28] was 17.9%, the viability, T/C [29] was 7.36% and the viability, T/C [30] was 8.33%. It also gave a viability, T/C [31] of 56.9%, a viability, T/C [32] of 37.8% and a viability, T/C [33] of 25%. It also gave a viability, T/C [34] of 11.8%, a viability, T/C [35] of 5.13% and a viability, T/C [36] of 6.11%.
Compound `CC(C)n1c(=O)n(C)c2cnc3cc(F)c(-c4ccc(OCCCN5CCCCC5)nc4)cc3c21` + Cc1cnc(CNC(=O)c2c(=O)c3ccc(N4CCCN(C)CC4)nc3n3c2sc2ccccc23)cn1 has an IC50 (second compound 0.0316 µM) of over 10000 nM, an IC50 (second compound 0.1 µM) of over 10000 nM and an IC50 (second compound 0.316 µM) of under 31.6 nM. It also gave an IC50 (second compound 1 µM) of under 31.6 nM, an IC50 (second compound 3.16 µM) of under 31.6 nM and an IC50 (second compound 10 µM) of under 31.6 nM. It also gave a viability, T/C [4] of 60.1%, a viability, T/C [37] of 53.2% and a viability, T/C [6] of 70.5%. For the same compound, the viability, T/C [38] was 56%, the viability, T/C [39] was 76.2% and the viability, T/C [40] was 74.9%. The viability, T/C [10] was 44.2%, the viability, T/C [41] was 60.9% and the viability, T/C [12] was 62.2%. For the same compound, the viability, T/C [42] was 54.1%, the viability, T/C [43] was 49.7% and the viability, T/C [44] was 56.6%. The viability, T/C [16] was 31.7%, the viability, T/C [45] was 31.4% and the viability, T/C [18] was 42.6%. It also gave a viability, T/C [46] of 40.4%, a viability, T/C [47] of 36.7% and a viability, T/C [48] of 41.7%. The viability, T/C [22] was 20%, the viability, T/C [49] was 22.5% and the viability, T/C [24] was 19.5%. For the same compound, the viability, T/C [50] was 20%, the viability, T/C [51] was 22.1% and the viability, T/C [52] was 26.8%. It also gave a viability, T/C [28] of 19.1%, a viability, T/C [53] of 17.9% and a viability, T/C [30] of 19.6%. It also gave a viability, T/C [54] of 21.1%, a viability, T/C [55] of 24.6% and a viability, T/C [56] of 20.4%. It also gave a viability, T/C [34] of 17.7%, a viability, T/C [57] of 19.4% and a viability, T/C [36] of 18.9%. The viability, T/C [58] was 20%, the viability, T/C [59] was 21.1% and the viability, T/C [60] was 21.8%.
Work on `CC1COCCN1c1cc(-c2ccnn2C)c2ccnc(-c3ccn[nH]3)c2n1` (stereo not drawn) + Cc1cnc(CNC(=O)c2c(=O)c3ccc(N4CCCN(C)CC4)nc3n3c2sc2ccccc23)cn1 yielded an IC50 (second compound 0.0316 µM) of under 31.6 nM, an IC50 (second compound 0.1 µM) of under 31.6 nM and an IC50 (second compound 0.316 µM) of under 31.6 nM. For the same compound, the IC50 (second compound 1 µM) was under 31.6 nM, the IC50 (second compound 3.16 µM) was under 31.6 nM and the IC50 (second compound 10 µM) was under 31.6 nM. It also gave a viability, T/C [4] of 33.3%, a viability, T/C [37] of 10.8% and a viability, T/C [6] of 10.1%. For the same compound, the viability, T/C [38] was 11.2%, the viability, T/C [39] was 14.3% and the viability, T/C [40] was 20.8%. It also gave a viability, T/C [10] of 28.9%, a viability, T/C [41] of 12.6% and a viability, T/C [12] of 10.6%. For the same compound, the viability, T/C [42] was 10.2%, the viability, T/C [43] was 12.9% and the viability, T/C [44] was 15.9%. The viability, T/C [16] was 29.5%, the viability, T/C [45] was 16.6% and the viability, T/C [18] was 13.1%. The viability, T/C [46] was 11.2%, the viability, T/C [47] was 12% and the viability, T/C [48] was 14.7%. It also gave a viability, T/C [22] of 19.1%, a viability, T/C [49] of 14.2% and a viability, T/C [24] of 10.4%. It also gave a viability, T/C [50] of 9.64%, a viability, T/C [51] of 12.4% and a viability, T/C [52] of 10.6%. The viability, T/C [28] was 18.9%, the viability, T/C [53] was 12.2% and the viability, T/C [30] was 11.1%. The viability, T/C [54] was 8.14%, the viability, T/C [55] was 10.1% and the viability, T/C [56] was 8.5%. The viability, T/C [34] was 15.4%, the viability, T/C [57] was 12.7% and the viability, T/C [36] was 10.5%. For the same compound, the viability, T/C [58] was 10.9%, the viability, T/C [59] was 7.61% and the viability, T/C [60] was 8.53%.

— PubChem BioAssay AID2060495 (Molecular Pharmacology Branch, DTP, NCI, 2025)
